Entries after “also recorded” stand apart in the source; their conditions may differ.
What was measured:
[1] = tested on: APOE4/4 homozygote patients and APOE4 heterozygote patients with mild-moderate Alzheimer's disease; assay: Expected treatment response to other 5-HT6 receptor antagonists in APOE4 patients; format: in vivo, human; settings: APOE4/4 homozygote and APOE4 heterozygote patients with mild-moderate AD; surmised from idalopirdine
[2] = tested on: patients with mild-moderate AD; assay: Phase III study 14861A, MMSE by ApoE4 allele number; settings: 60 mg QD versus placebo, adjunct to donepezil
Method: (§1) Mini Mental State Examination (MMSE) is measured according to Folstein, M. F., Folstein, S. E. & McHugh, P. R. “Mini-mental state”: a practical method for grading the cognitive state of patients for the clinician.
(§2) Mine Mental State Examination (MMSE) was included as a secondary endpoint supportive of the primary objective.
(§3) In the tables below a negative effect value for ADAS-cog and NPI reflects a positive treatment effect, while for ADL and MMSE a positive effect value reflects a positive treatment effect:

[3] = tested on: patients with mild-moderate AD; assay: Phase III studies 14861A and 14863A pooled, NPI by ApoE4 allele number; settings: 60 mg versus placebo, adjunct to AChEI
From the text: (§4) Neuropsychiatric Inventory (NPI) was included as an endpoint supportive of the secondary objective.

[4] = tested on: patients with mild-moderate AD; assay: Phase III study 14861A, ADCS-ADL by ApoE4 allele number; settings: 60 mg QD versus placebo, adjunct to donepezil
Method: (§5) ADCS-ADL is measured according to Galasko et al. An inventory to assess activities of daily living for clinical trials in Alzheimer's disease.
(§6) The key secondary endpoints included a change from baseline to Week 24 in Alzheimer's disease Cooperative Study-Activities of Daily Living Inventory (ADCS-ADL) total score.

[5] = tested on: patients with moderate AD (MMSE 12-19); settings: LADDER study, 90 mg/day (30 mg TID) added to stable donepezil; cited from earlier work
[6] = tested on: patients with mild-moderate AD; assay: Phase III studies 14861A and 14863A pooled, ADCS-ADL by ApoE4 allele number; settings: 60 mg versus placebo, adjunct to AChEI
Method: as §5, §6

[7] = molecular target: h5-HT2B (Homo sapiens, UniProt P41595); settings: cited from earlier work
[8] = tested on: patients with mild-moderate AD; assay: Phase III study 14863A, NPI by ApoE4 allele number; settings: 60 mg QD versus placebo, adjunct to donepezil, rivastigmine, galantamine
From the text: as §4

[9] = molecular target: h5-HT1B (Homo sapiens, UniProt P28222); settings: cited from earlier work
[10] = tested on: patients with mild-moderate AD; assay: Phase III study 14861A, ADAS-cog by ApoE4 allele number; settings: 60 mg QD versus placebo, adjunct to donepezil
From the text: (§7) The primary endpoint was change from baseline to Week 24 in Alzheimer's disease Assessment Scale-cognitive subscale (ADAS-cog). This end-point addresses the primary objective of the study, which was to establish efficacy of idalopirdine as adjunctive therapy to donepezil for symptomatic treatment of patients with mild-moderate AD.

[11] = tested on: patients with mild-moderate AD; assay: Phase III study 14863A, ADCS-ADL by ApoE4 allele number; settings: 60 mg QD versus placebo, adjunct to donepezil, rivastigmine, galantamine
Method: as §5, §6

[12] = tested on: patients with mild-moderate AD; assay: Phase III study 14863A, ADAS-cog by ApoE4 allele number; settings: 60 mg QD versus placebo, adjunct to donepezil, rivastigmine, galantamine
From the text: as §7

[13] = tested on: patients with mild-moderate AD; assay: Phase III studies 14861A and 14863A pooled, MMSE by ApoE4 allele number; settings: 60 mg versus placebo, adjunct to AChEI
Method: as §1, §2, §3

[14] = tested on: patients with mild-moderate Alzheimer's disease (MMSE 12-22); assay: Phase III program, idalopirdine as adjunctive treatment to acetylcholinesterase inhibitor, cognitive performance; format: in vivo, human
[15] = tested on: patients with mild-moderate AD; assay: Phase III study 14863A, MMSE by ApoE4 allele number; settings: 60 mg QD versus placebo, adjunct to donepezil, rivastigmine, galantamine
Method: as §1, §2, §3

[16] = tested on: patients with mild-moderate AD; assay: Phase III study 14861A, NPI by ApoE4 allele number; settings: 60 mg QD versus placebo, adjunct to donepezil
From the text: as §4

[17] = molecular target: h5-HT7 (Homo sapiens, UniProt P34969); settings: cited from earlier work
[18] = molecular target: h5-HT1E (Homo sapiens, UniProt P28566); settings: cited from earlier work
[19] = tested on: patients with mild-moderate AD; assay: Phase III studies 14861A and 14863A pooled, ADAS-cog by ApoE4 allele number; settings: 60 mg versus placebo, adjunct to AChEI
From the text: as §7

[20] = tested on: AD; settings: cited from earlier work
[21] = 0 ApoE4 alleles, positive = positive treatment effect
[22] = 1 ApoE4 allele, positive = positive treatment effect
[23] = 2 ApoE4 alleles, positive = positive treatment effect
[24] = interaction 2 vs 0 ApoE4 alleles
[25] = interaction (1 or 2) vs 0 ApoE4 alleles
[26] = 0 ApoE4 alleles, negative = positive treatment effect
[27] = 1 ApoE4 allele, negative = positive treatment effect
[28] = 2 ApoE4 alleles, negative = positive treatment effect

Chain of h5-HT2B (P41595 whole entry): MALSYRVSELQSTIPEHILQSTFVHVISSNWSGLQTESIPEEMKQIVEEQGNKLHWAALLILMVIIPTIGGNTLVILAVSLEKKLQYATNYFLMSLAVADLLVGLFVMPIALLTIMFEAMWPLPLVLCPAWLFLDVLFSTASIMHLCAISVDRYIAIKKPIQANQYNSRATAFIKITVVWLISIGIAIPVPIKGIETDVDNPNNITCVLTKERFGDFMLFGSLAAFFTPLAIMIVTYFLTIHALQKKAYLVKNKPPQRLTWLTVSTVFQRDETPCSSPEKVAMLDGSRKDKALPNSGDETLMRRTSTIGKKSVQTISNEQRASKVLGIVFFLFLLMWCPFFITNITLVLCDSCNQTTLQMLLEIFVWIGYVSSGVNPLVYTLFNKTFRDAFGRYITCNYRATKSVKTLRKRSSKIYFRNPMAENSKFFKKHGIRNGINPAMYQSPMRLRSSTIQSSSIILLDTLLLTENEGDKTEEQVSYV
Chain of h5-HT1B (P28222 whole entry): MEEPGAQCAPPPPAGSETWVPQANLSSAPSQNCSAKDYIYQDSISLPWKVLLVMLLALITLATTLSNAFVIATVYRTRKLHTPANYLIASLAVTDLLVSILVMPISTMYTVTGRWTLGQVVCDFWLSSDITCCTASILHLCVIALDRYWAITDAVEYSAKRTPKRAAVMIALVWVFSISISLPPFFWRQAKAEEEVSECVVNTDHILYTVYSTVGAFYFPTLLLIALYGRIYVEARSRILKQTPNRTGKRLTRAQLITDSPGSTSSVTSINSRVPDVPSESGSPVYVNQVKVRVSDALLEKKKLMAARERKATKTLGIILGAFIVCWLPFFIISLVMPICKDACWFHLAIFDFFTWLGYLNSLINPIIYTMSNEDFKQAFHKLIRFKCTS
Chain of h5-HT7 (P34969 whole entry): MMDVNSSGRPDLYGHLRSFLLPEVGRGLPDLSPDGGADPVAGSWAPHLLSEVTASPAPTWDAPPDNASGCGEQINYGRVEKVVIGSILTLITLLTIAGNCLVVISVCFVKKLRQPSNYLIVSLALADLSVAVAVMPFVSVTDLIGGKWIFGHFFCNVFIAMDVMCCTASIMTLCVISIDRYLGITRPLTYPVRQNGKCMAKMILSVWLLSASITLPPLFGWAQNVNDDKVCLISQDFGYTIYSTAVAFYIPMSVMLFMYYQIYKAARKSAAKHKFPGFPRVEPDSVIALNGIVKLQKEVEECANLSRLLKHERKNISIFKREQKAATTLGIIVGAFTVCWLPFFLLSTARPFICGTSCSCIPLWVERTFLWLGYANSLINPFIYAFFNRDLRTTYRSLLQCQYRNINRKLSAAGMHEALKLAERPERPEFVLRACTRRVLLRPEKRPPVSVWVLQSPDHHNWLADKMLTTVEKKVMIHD
Chain of h5-HT1E (P28566 whole entry): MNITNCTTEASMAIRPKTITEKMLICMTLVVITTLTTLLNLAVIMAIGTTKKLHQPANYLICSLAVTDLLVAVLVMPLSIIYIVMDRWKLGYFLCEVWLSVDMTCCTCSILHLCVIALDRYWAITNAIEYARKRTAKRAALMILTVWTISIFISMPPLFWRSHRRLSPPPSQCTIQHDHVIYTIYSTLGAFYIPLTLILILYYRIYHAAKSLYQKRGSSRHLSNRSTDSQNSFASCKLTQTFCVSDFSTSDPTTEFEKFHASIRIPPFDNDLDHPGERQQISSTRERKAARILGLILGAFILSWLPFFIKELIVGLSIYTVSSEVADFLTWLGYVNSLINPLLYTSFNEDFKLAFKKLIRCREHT

SMILES: CSc1nn2c(C)cc(C)nc2c1S(=O)(=O)c1ccccc1 [AVN-211, 3-Benzenesulfonyl-5,7-dimethyl-2-methylsulfanyl-pyrazolo[1,5-a]pyrimidine]
- treatment response in Alzheimer's disease [1]: enhanced treatment response

SMILES: Fc1ccc2c(CCNCc3cccc(OCC(F)(F)C(F)F)c3)c[nH]c2c1 [idalopirdine, N-(2-(6-fluoro-1H-indol-3-yl)-ethyl)-3-(2,2,3,3-tetrafluoropropoxy)-benzylamine]
- Change in MMSE at week 24, effect of 60 mg IDL [2, 21]: −0.68
- Change in MMSE at week 24, effect of 60 mg IDL [2, 22]: 0.64
- Change in MMSE at week 24, effect of 60 mg IDL [2, 23]: 1.11
- Change in MMSE at week 24, effect of 60 mg IDL [2, 24]: 1.79
- Change in MMSE at week 24, effect of 60 mg IDL [2, 25]: 1.56
- Change in NPI at week 24, effect of 60 mg IDL [3, 26]: 0.35
- Change in NPI at week 24, effect of 60 mg IDL [3, 27]: −0.04
- Change in NPI at week 24, effect of 60 mg IDL [3, 28]: −3.06
- Change in NPI at week 24, effect of 60 mg IDL [3, 24]: −3.41
- Change in NPI at week 24, effect of 60 mg IDL [3, 25]: −1.90
- Change in ADCS-ADL at week 24, effect of 60 mg IDL [4, 21]: −1.29
- Change in ADCS-ADL at week 24, effect of 60 mg IDL [4, 22]: 0.75
- Change in ADCS-ADL at week 24, effect of 60 mg IDL [4, 23]: 2.06
- Change in ADCS-ADL at week 24, effect of 60 mg IDL [4, 24]: 3.35
- Change in ADCS-ADL at week 24, effect of 60 mg IDL [4, 25]: 2.69
- cognitive performance relative to donepezil monotherapy [5]: significant improvement
- Change in ADCS-ADL at week 24, effect of 60 mg IDL [6, 21]: −0.21
- Change in ADCS-ADL at week 24, effect of 60 mg IDL [6, 22]: 0.77
- Change in ADCS-ADL at week 24, effect of 60 mg IDL [6, 23]: 1.88
- Change in ADCS-ADL at week 24, effect of 60 mg IDL [6, 24]: 2.09
- Change in ADCS-ADL at week 24, effect of 60 mg IDL [6, 25]: 1.53
- Ki [7]: > 4.1 µM
- Change in NPI at week 24, effect of 60 mg IDL [8, 26]: −0.09
- Change in NPI at week 24, effect of 60 mg IDL [8, 27]: 0.34
- Change in NPI at week 24, effect of 60 mg IDL [8, 28]: −2.06
- Change in NPI at week 24, effect of 60 mg IDL [8, 24]: −1.97
- Change in NPI at week 24, effect of 60 mg IDL [8, 25]: −0.77
- Ki [9]: > 10 µM
- Change in ADAS-cog at week 24, effect of 60 mg IDL [10, 26]: 1.14
- Change in ADAS-cog at week 24, effect of 60 mg IDL [10, 27]: −0.67
- Change in ADAS-cog at week 24, effect of 60 mg IDL [10, 28]: −1.87
- Change in ADAS-cog at week 24, effect of 60 mg IDL [10, 24]: −3.02
- Change in ADAS-cog at week 24, effect of 60 mg IDL [10, 25]: −2.42
- Change in ADCS-ADL at week 24, effect of 60 mg IDL [11, 21]: 0.50
- Change in ADCS-ADL at week 24, effect of 60 mg IDL [11, 22]: 0.83
- Change in ADCS-ADL at week 24, effect of 60 mg IDL [11, 23]: 1.86
- Change in ADCS-ADL at week 24, effect of 60 mg IDL [11, 24]: 1.37
- Change in ADCS-ADL at week 24, effect of 60 mg IDL [11, 25]: 0.85
- Change in ADAS-cog at week 24, effect of 60 mg IDL [12, 26]: −0.75
- Change in ADAS-cog at week 24, effect of 60 mg IDL [12, 27]: −0.18
- Change in ADAS-cog at week 24, effect of 60 mg IDL [12, 28]: −2.23
- Change in ADAS-cog at week 24, effect of 60 mg IDL [12, 24]: −1.48
- Change in ADAS-cog at week 24, effect of 60 mg IDL [12, 25]: −0.46
- Change in MMSE at week 24, effect of 60 mg IDL [13, 21]: −0.20
- Change in MMSE at week 24, effect of 60 mg IDL [13, 22]: 0.53
- Change in MMSE at week 24, effect of 60 mg IDL [13, 23]: 1.00
- Change in MMSE at week 24, effect of 60 mg IDL [13, 24]: 1.20
- Change in MMSE at week 24, effect of 60 mg IDL [13, 25]: 0.96
- cognitive performance relative to donepezil monotherapy ([14]; adjunctive to donepezil, APOE4 homozygote and APOE4 heterozygote patients with mild-moderate AD (MMSE 12-22)): a significant improvement
- cognitive performance relative to donepezil monotherapy ([14]; phase III, 10, 30, and 60 mg QD adjunctive to AChEI, all patients with mild-moderate AD (MMSE 12-22)): did not replicate the phase II efficacy results; also recorded: no significant improvement
- Change in MMSE at week 24, effect of 60 mg IDL [15, 21]: 0.16
- Change in MMSE at week 24, effect of 60 mg IDL [15, 22]: 0.42
- Change in MMSE at week 24, effect of 60 mg IDL [15, 23]: 0.96
- Change in MMSE at week 24, effect of 60 mg IDL [15, 24]: 0.80
- Change in MMSE at week 24, effect of 60 mg IDL [15, 25]: 0.53
- Change in NPI at week 24, effect of 60 mg IDL [16, 26]: 0.96
- Change in NPI at week 24, effect of 60 mg IDL [16, 27]: −0.43
- Change in NPI at week 24, effect of 60 mg IDL [16, 28]: −4.52
- Change in NPI at week 24, effect of 60 mg IDL [16, 24]: −5.48
- Change in NPI at week 24, effect of 60 mg IDL [16, 25]: −3.44
- Ki [17]: > 10 µM
- Ki [18]: > 4.6 µM
- Change in ADAS-cog at week 24, effect of 60 mg IDL [19, 26]: 0.02
- Change in ADAS-cog at week 24, effect of 60 mg IDL [19, 27]: −0.41
- Change in ADAS-cog at week 24, effect of 60 mg IDL [19, 28]: −2.11
- Change in ADAS-cog at week 24, effect of 60 mg IDL [19, 24]: −2.13
- Change in ADAS-cog at week 24, effect of 60 mg IDL [19, 25]: −1.28

SMILES: NCCCS(=O)(=O)O [tramiprosate]
- primary endpoint of phase III program ([20]; all patients): not to meet its primary endpoint
- prespecified subgroup analysis ([20]; apolipoprotein E4 carriers): potential efficacy

SMILES: O=S(=O)(c1ccccc1)c1cnc2c(N3CCNCC3)cccc2c1 [RVT-101, 3-phenylsulfonyl-8-piperazin-1-yl-quinoline]
- treatment response in Alzheimer's disease [1]: enhanced treatment response
